Data published in PMC13376213, “Systematic discovery of motif-based interactions of the auxiliary domains of USP family deubiquitinases” (Nature Communications, 2026).
Where two headings read alike, the source gives them in different places. Blank lines part the entries; values can stand above or below the compound they belong to. Ends that are not written are not given here.

Assays:
[1] = biological target: T1, USP20 DUSP2 domain (Homo sapiens, UniProt Q9Y2K6); experiment: FP-monitored affinity measurements, USP20 DUSP2; assay type: binding
T1 construct: USP20_DUSP2; Q9Y2K6; DUSP2; 776; 894; 6xHis-GST (N, cleaved yes); made in house; host or cells: Escherichia coli BL21-Gold (DE3)
T1 sequence (Q9Y2K6 with tags, fused parts or gaps): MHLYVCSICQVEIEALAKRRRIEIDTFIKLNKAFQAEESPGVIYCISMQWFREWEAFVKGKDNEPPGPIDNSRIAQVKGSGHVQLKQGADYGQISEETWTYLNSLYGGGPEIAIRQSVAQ
Method: (§1) Proteins were expressed in Escherichia coli (E.coli) BL21-Gold (DE3) bacteria. The cDNAs encoding N-terminal 6-histidine-glutathione S-transferase tagged (6xHis-GST), 6xHis-tagged or GST-tagged protein domains in pETM33, pETM11, pGEX6P1 expression vectors respectively, were obtained from Genescript or kindly provided by MRC-PPU (Suppl. Data 1) The bacteria were transformed with the plasmid and grew at 37 °C in 2YT (5 g/L NaCl, 16 g/L tryptone and 10 g/L yeast extract) supplemented with Kanamycin (30 μg/mL) until reaching an OD600 of 0.7. Protein expression was induced with 0.3 mM isopropyl β-D-1 thiogalactopyranoside (IPTG) for 18 h at 18 °C while shaking. For zinc-finger domains, 50 μM of ZnSO4 was added during expression. The bacterial cultures were pelleted for 15 minutes at 4000 x g at 4 °C and stored at −20 °C until purification. The pellets were resuspended in lysis buffer (1× phosphate-buffered saline (PBS), 0.5 % Triton-X, 5 mM MgCl2, 10 μg/mL lysozyme, cOmplete^TM EDTA-free protease inhibitor cocktail (Roche), 10 μg/mL DNAseI) and incubated for 1 h shaking at 4 °C. […] The supernatant was incubated with glutathione (GSH) Sepharose (Cytiva) or Ni2+ Sepharose (Cytiva) for 1 h at 4 °C while shaking. The beads with the bound protein were washed with 1x PBS and eluted with 10 mM reduced glutathione in 50 mM Tris pH 8.0. For fluorescence polarization experiments, the proteins were not eluted from the beads, and the 6xHis-GST tag was cleaved overnight on GSH Sepharose beads at 4 °C while shaking with PreScission Protease in cleavage buffer (50 mM Tris pH 7.5, 150 mM NaCl, 1 mM DTT). The sample containing the cleaved domain was separated from the tag and protease and buffer-exchanged to 50 mM sodium phosphate buffer pH 7.4 with 1 mM DTT using a PD-10 desalting column (Cytiva). The purity and size of the proteins were analyzed by SDS-PAGE electrophoresis.
(§2) The measurements were performed at room temperature in a non-binding black half area 96-well plate (Corning) with a total volume of 50 μL per well. Peptides were obtained from GeneCust (France) with >95% purity. FITC-labeled peptides (N-terminally FITC-labeled without spacer and C-terminally amidated) were dissolved in dimethyl sulfoxide (DMSO), and unlabeled peptides (N-terminally acetylated and C-terminally amidated) were dissolved in 50 mM phosphate buffer pH 7.4. Saturation measurements were performed using a serial dilution of the protein domains in phosphate buffer (25 μL) and the addition of 10 nM FITC-labeled peptide (in phosphate buffer supplemented with 2 mM DTT) (25 μL). […] All measurements were performed in three technical replicates. The data were analyzed using GraphPad Prism version 9.2.0 for MacOS (GraphPad Software, San Diego, California USA, www.graphpad.com). The saturation curves were fitted to the quadratic equation, and the displacement curves were fitted to a sigmoidal dose-response equation as described previously.

[2] = biological target: T2, USP33 DUSP2 domain (Homo sapiens, UniProt Q8TEY7); experiment: FP-monitored affinity measurements, USP33 DUSP2; assay type: binding
T2 construct: USP33_DUSP2; Q8TEY7; DUSP2; 806; 921; 6xHis-GST (N, cleaved yes); made in house; host or cells: Escherichia coli BL21-Gold (DE3)
T2 sequence (Q8TEY7 with tags, fused parts or gaps): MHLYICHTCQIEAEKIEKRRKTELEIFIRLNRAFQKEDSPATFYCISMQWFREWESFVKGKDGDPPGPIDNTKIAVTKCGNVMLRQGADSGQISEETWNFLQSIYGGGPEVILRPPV
Method: as §1, §2

[3] = biological target: T1, USP20 DUSP2 domain; experiment: Peptide SPOT array, USP20 DUSP2; assay type: binding; settings: for Average: peptide SPOT array intensity minus background, mean of 2 replicas; for Average / Normalize to peptide with higher intensity %: sheet S5A; for Normalize to higher intensity (%) / Normalize to peptide with higher intensity %: peptide SPOT array; for Normalize to higher intensity (%): USP20 DUSP2, average normalised to the highest intensity (ARNTL2 = 100); for Normalize to peptide with higher intensity %: average normalized to the peptide with highest intensity (ARNTL2 = 100);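 on all read-outs here: GST-tagged domain probed overnight at 4 °C on peptides made on cellulose membranes, bound protein detected via HRP-coupled anti-GST antibody, spot intensity from image analysis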
Method: (§3) Peptides were synthesized on cellulose membranes with standard Fluoroenylmethylox-ycarbonyl (Fmoc) chemistry using a Multipep automated synthesizer at INTAVIS (Tübingen, Germany) or ordered from JPT (PepSpots). The membranes were activated with methanol for 5 min and washed three times for 5 min with TBST (50 mM Tris, 137 mM NaCl, 2.7 mM KCl, pH 8.0, 0.05% Tween-20). The membranes were incubated with blocking buffer (5% skim milk powder in TBST) for 2 h at room temperature while shaking. The membranes were incubated with the GST-tagged protein diluted at the desired concentration in blocking buffer and incubated overnight at 4 °C while shaking. The membrane was rinsed 3 times with TBST and incubated with HRP-conjugated anti-GST antibody (Cytiva, RPN1236; 1:3000 dilution) in blocking buffer for 1 h at 4 °C while shaking. […] The images were analyzed in Fiji (ImageJ2 version 2.9.0).

[4] = biological target: T2, USP33 DUSP2 domain; experiment: Peptide SPOT array, USP33 DUSP2; assay type: binding; settings: average normalised to the highest intensity (CCDC88B = 100)
Method: as §3

[5] = biological target: T3, USP33 zf-UBP domain (Homo sapiens, UniProt Q8TEY7); experiment: FP-monitored affinity measurements, USP33 zf-UBP; assay type: binding; settings: USP33_UBP; FP displacement by unlabelled peptide; read-out: KD
T3 construct: USP33_UBP; Q8TEY7; zf-UBP; 36; 130; 6xHis-GST (N, cleaved yes); made in house; host or cells: Escherichia coli BL21-Gold (DE3)
T3 sequence (Q8TEY7 with tags, fused parts or gaps): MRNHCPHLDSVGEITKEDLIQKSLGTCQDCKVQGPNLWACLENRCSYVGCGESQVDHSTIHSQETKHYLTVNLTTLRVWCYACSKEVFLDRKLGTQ
Method: The measurements were performed at room temperature in a non-binding black half area 96-well plate (Corning) with a total volume of 50 μL per well. […] All measurements were performed in three technical replicates. […] The saturation curves were fitted to the quadratic equation, and the displacement curves were fitted to a sigmoidal dose-response equation as described previously[68].

[6] = tested on: FLAG-USP33; experiment: IP-MS of FLAG-USP33 and variants vs empty vector; assay type: cell-based, human; settings: IP-MS
Method: For transfection, 1x10^6 HEK293 cells were seeded in 10 cm dishes with DMEM, 10% FBS, 1% L-G (without antibiotic) medium, incubated at 37 °C, with 5 % CO2 for 24 h. Cells were transfected with a transfection mix containing […] of Opti-MEM (Thermo Fisher Scientific), 20 μL of PEI stock (1 mg/mL) and […] of the desired cDNA. For co-transfection, 2.5 μg of DNA of each plasmid was used. The mix was vortexed for 15 s and incubated at room temperature for 15–20 min. The transfection mix was added to the dish and gently mixed. Plates were incubated at 37 °C for 36–48 h before harvesting. For USP33 constructs, 5 μM Bortezomib (proteasome inhibitor) was added 4 hours before harvesting the cells.
FLAG fusion proteins were immunoprecipitated from HEK293 cells transfected with plasmids encoding the protein of interest using the anti-FLAG M2 affinity gel from Sigma-Aldrich. Cell pellets were lysed with 100–200 μL/per dish lysis buffer (Pierce RIPA buffer, 1X protease inhibitor (Roche), 50 unit/μL of Benzonase Nuclease) rotating at 4 °C for 30–45 min. […] The cell lysate was clarified by centrifugation at 17,000 x g, at 4 °C for 12 min, and the supernatant was transferred to a clean, pre-chilled low-binding Eppendorf tube. […] The IP samples were centrifuged at 6500 x g at 4 °C for 30 s. The supernatant containing the unbound proteins was transferred to a clean tube. The resin was washed three times with 500 μL of TBS, centrifuged at 6500 x g at 4 °C for 30 s. The bound FLAG fusion protein was eluted with 100 μL of 150 ng/μL 3X FLAG peptide (Sigma) in TBS and incubated in the cold room for 1 h or overnight. The tube was centrifuged at 6500 x g at 4 °C for 30 s; the eluted proteins were transferred to a clean tube. The eluted proteins were prepared for analysis by western blot or Mass Spectrometry.
Immunoprecipitation (IP) was carried out as described above; four technical replicates of each IP condition were performed, and the empty vector was used as a negative control. The eluted protein was processed following the Strap-micro protocol (Protifi). The IP elution containing 1–100 μg protein was 1:1 mixed with 2X lysis buffer (10% SDS, 100 mM TEAB pH 8.5). […] Samples were vortexed, mixed with 165 μL of 100 mM TEAB in 90% methanol, and passed through an S-Trap micro column at 4000 g for 30 s to trap the proteins. The column was washed with 150 μL of 100 mM TEAB in 90% methanol (at 4,000 x g for 30 seconds) three times. The S-Trap column was centrifuged again and transferred to a clean 2 mL tube for digestion with 20 μL of digestion buffer (1 μg trypsin per 10 μg sample in 50 mM TEAB), at 37 °C overnight in a thermomixer without shaking. The digested peptides were eluted with […] of 50 mM TEAB in water, […] of 0.2 % formic acid in water, and […] of 50 % acetonitrile in water, centrifuging at 4000 x g for 1 min each time. The three elutions were pooled in a low-binding tube, placed on dry ice until frozen, dried in a SpeedVac vacuum (Thermo Scientific), and proceeded with the LCMS analysis.
Eluted peptides were resuspended in water supplemented with 0.015% dodecyl maltoside and 0.1% formic acid and were injected on a Vanquish Neo UHPLC System operating in trap and elute mode coupled to an Orbitrap Astral Mass Spectrometer (Thermo Fisher Scientific). […] Eluted peptides were analyzed using data-independent acquisition mode on the mass spectrometer.
Peptides were searched against the Uniprot Swissprot Human database (released on 02/01/2023) supplemented with the USP20 and USP33 mutants using DiaNN (v1.9.0)[62] operating in library-free mode. Data filtering and statistical analysis were carried out in Python (v3.9.0) using the packages pandas, numpy, sklearn, scipy, rpy2, Plotnine, and Plotly and R (v4.4.3) using the package limma.
Protein groups identified with a single peptide or quantified in fewer than three replicates in at least 1 condition were filtered out. […]

[7] = USP20_DUSP2, FP displacement by unlabelled peptide, read-out: KD
[8] = USP33_DUSP2, FP displacement by unlabelled peptide, read-out: KD

- Kd [1, 7]: 22.4 µM
- Kd [2, 8]: 40.1 µM
- Average [3]: 62.4217
- Normalize to higher intensity (%) [3]: 34.95%
- Normalize to peptide with higher intensity % [3]: 34.9541%
- Normalize to higher intensity (%) [4]: 100%
Compound: QLEEELFQLRQGPAGL [CCDC88B]

- Kd [1, 7]: ~235 µM
- Kd [2, 8]: ~1180 µM
Compound: Ac-PYIPMDGEDFQLSPICPE-NH2 [HIF2A]

- Kd ([1]; competitive FP: unlabeled peptide (N-acetylated, C-amidated) against protein with 10 nM FITC-labeled peptide, 50 mM phosphate pH 7.4, room temperature, technical triplicate, read-out: KD, USP20 DUSP2): > 200 µM
- Kd ([2]; competitive FP: unlabeled peptide (N-acetylated, C-amidated) against protein with 10 nM FITC-labeled peptide, 50 mM phosphate pH 7.4, room temperature, technical triplicate, read-out: KD, USP33 DUSP2): > 1000 µM
Compound: PYIPMDGEDFQLSPICPE [HIF2A531-548]

- Kd [1, 7]: 44.7 µM
- Kd [2, 8]: 0.75 µM
- Average [3]: -6.828
- Normalize to higher intensity (%) [3]: -3.824%
- Normalize to peptide with higher intensity % [3]: -3.824%
- Normalize to higher intensity (%) [4]: 51.523%
Compound: PDVVDDFQLQHRHGPG [MFSD2B]

- Kd [5]: 112 µM
Compound: CC(=O)N[C@@H](Cc1ccc(O)cc1)C(=O)N[C@@H](CCCCN)C(=O)N[C@@H](CCC(N)=O)C(=O)N[C@@H](CCC(N)=O)C(=O)N[C@@H](CCCNC(=N)N)C(=O)N[C@@H](CO)C(=O)N[C@@H](CC(=O)O)C(=O)N[C@@H](CC(C)C)C(=O)N[C@@H](C)C(=O)NCC(=O)N1CCC[C@H]1C(=O)N[C@H](C(=O)N[C@@H](CC(=O)O)C(N)=O)C(C)C [APBA2_N334A]

- Kd [1, 7]: ~589 µM
- Kd [2, 8]: ~930 µM
Compound: CC[C@H](C)[C@H](NC(=O)[C@H](Cc1ccc(O)cc1)NC(=O)[C@@H]1CCCN1C(C)=O)C(=O)N1CCC[C@H]1C(=O)N[C@@H](CCSC)C(=O)N[C@@H](CC(=O)O)C(=O)N[C@@H](CC(=O)O)C(=O)N[C@@H](CC(=O)O)C(=O)N[C@@H](C)C(=O)N[C@@H](CCC(N)=O)C(=O)N[C@@H](CC(C)C)C(=O)N[C@@H](CCCNC(=N)N)C(=O)N[C@@H](CO)C(=O)N[C@@H](Cc1ccccc1)C(=O)N[C@@H](CC(=O)O)C(=O)N[C@@H](CCC(N)=O)C(=O)N[C@@H](CC(C)C)C(=O)N[C@@H](CO)C(N)=O [HIF1A_F572A]

Compound: NBAS
- log2_FC ([6]; FLAG-USP33-ΔDUSP2 vs EV, comparison bh_2 Sample_Limma_ImpMedInt_USP33_DUSP2_domain/EV): 2.843
- log2_FC ([6]; FLAG-USP33-ΔUBP vs EV, comparison bh_2 Sample_Limma_ImpMedInt_USP33_UBP_domain/EV): 2.886
- log2_FC ([6]; FLAG-USP33 UBP mutant vs EV, comparison USP33_E86K_D90R/EV, Limma): 2.804
